How the values were obtained:
[1] = biological target: T1, N-acetylglucosamine kinase (NAGK) (Homo sapiens, UniProt Q9UJ70); assay: in vitro kinase assay with [γ-32P]ATP and TLC; LC-MS/MS; NMR of product; assay type: biochemical
T1 construct: full-length human NAGK, recombinant from E. coli, His-MBP tag removed

[2] = biological target: T1, N-acetylglucosamine kinase (NAGK); assay: in vitro kinase assay with [γ-32P]ATP and TLC; assay type: biochemical

T1 sequence (Q9UJ70 2-344): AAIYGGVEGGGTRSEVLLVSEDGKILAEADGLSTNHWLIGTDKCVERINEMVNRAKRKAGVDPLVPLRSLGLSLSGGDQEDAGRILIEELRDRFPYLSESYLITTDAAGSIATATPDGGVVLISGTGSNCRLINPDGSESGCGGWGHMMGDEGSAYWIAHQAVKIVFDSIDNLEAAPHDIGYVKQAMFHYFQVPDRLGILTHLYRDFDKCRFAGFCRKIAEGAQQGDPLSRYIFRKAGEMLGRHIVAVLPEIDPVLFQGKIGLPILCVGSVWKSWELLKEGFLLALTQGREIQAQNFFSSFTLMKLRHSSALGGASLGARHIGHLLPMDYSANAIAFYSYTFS

Compound | in vitro kinase assay with [γ-32P]ATP and TLC; LC-MS/MS; NMR of product [1] | in vitro kinase assay with [γ-32P]ATP and TLC [2]
CC(=O)N[C@H]1C(O)O[C@H](CO)[C@@H](O)[C@@H]1O[C@H](C)C(=O)N[C@@H](C)C(=O)N[C@H](CCC(=O)O)C(N)=O (some centres unmarked) [MDP] | These assays revealed that NAGK readily phosphorylated MDP and the related molecule N-acetylmuramic acid (MurNAc) | 
CC(=O)N[C@H]1C(O)O[C@H](CO)[C@@H](O)[C@@H]1O (some centres unmarked) [GlcNAc, N-acetylglucosamine] |  | to similar levels as its bona fide substrate GlcNAc (Fig. 3b)
